Experiment [1] relates to PRC2 components SUZ12, EZH2 and EED. Briefly: Western blot of PRC2 protein levels after drug treatment. The class given is cell-based, human. The note with it: HCT116 or MCF-7 cells, 5 μM, 48 and 72 hours. As to the method: Cell lines used in these examples were purchased from the American Type Culture Collection (Manassas, Va.). Cells were maintained in DMEM supplemented with 10% fetal bovine serum with glutamine, penicillin, and streptomycin. For drug treatment, cells were seeded the day before the drug treatment. Cells were treated with 5 μM 3-Deazaneplanocin A or 2 μM 5-aza-2'-deoxycytidine (5-AzaC; Sigma) for 72 hours and trichostatin A (TSA; Sigma) at 100 nM for 24 hours. For co-treatment of cells with 5-AzaC and TSA, 5-Aza was added for 48 hours and followed by TSA for 24 hours. Cell pellets were first lysed in RadioImmuno Precipitation Assay (RIPA) buffer, consisting of an aqueous solution of 25 mM Tris-HCl pH 7.6, 150 mM NaCl, 1% Nonidet-P 40 (NP-40), 1% sodium deoxycholate and 0.1% sodium dodecylsulfate (SDS), before further sonicated using a tissue homogeniser to release all the proteins. Equal amounts of protein were separated on SDS-polyacrylamide gels and transferred to polyvinylidene difluoride (PVDF) membranes. The blots were probed with antibodies against: EED (07-368), SUZ12 (07-379), SUV39H1 (07-550), BMI1 (05-637), tri-methylated H3-K27 (07-449), tri-methylated H3-K9 (07-442) and Acetyl-Histone H3 (06-599), and were purchased from Upstate. EZH2 (AC22) and Histone H3 (3H1) were from Cell Signaling. […]

A further experiment concerns MB-468 cells. Briefly: Cell death / apoptosis by PI staining and flow cytometry. The class given is cell-based, human. The method, then: FIG. 3A depicts the detection of cell death of a variety of cancer cells upon exposure to 3-deazaneplanocin (DZNep) compared to untreated controls cells (DMSO=dimethyl sulfoxide). Breast cancer MCF-7 and MB-468 cells, colorectal HCT116, RKO and SW480 cells were treated with 5 μm 3-deazaneplanocin for 48 and 72 h, and cell death was detected by means of propodium iodide (PI) staining and flow cytometry analysis. Shown is the average of three independent experiments.
FIG. 6A depicts an analysis of the breast cancer cell lines MCF-7, MB-468, SK-BR-3, MB-231, T47D and BT549 for an apoptotic effect of 5 μM 3-deazaneplanocin over a time frame of 120 hours. Cell death was measured by FACS analysis. Data presented are the average of three independent experiments.
Cell lines used in these examples were purchased from the American Type Culture Collection (Manassas, Va.). Cells were maintained in DMEM supplemented with 10% fetal bovine serum with glutamine, penicillin, and streptomycin. For drug treatment, cells were seeded the day before the drug treatment. […]
It was observed that 3-deazaneplanocin at 5 μM could induce 25% cell death at 48 hours and 45% of cell death at 72 hours, as determined by propodium iodide (PI) staining and flow cytometry analysis (FIG. 3A). […]
In general terms: In flow cytometry, cells or beads pass a laser one at a time.

Experiment [2] deals with PRC2 target genes in MCF-7, MB-468, SK-BR-3, T47D, MCF10A, MB-231, BT549. Description: Array analysis of PRC2 targets in sensitive and resistant breast cancer cell lines. The class given is cell-based. The method, then:
FIG. 6B depicts the results of array analysis in these breast cancer cell lines (MCF-7, MB-468, SK-BR-3 and T47D sensitive ? MCF10A, MB-231, BT549 resistant) before and after 3-deazaneplanocin treatment. […] Genes marked in bold are highly expressed in resistant cell lines relative to sensitive cell lines.
Total RNA was isolated from cell lines using Trizol (Invitrogen) and was converted to cDNA using an RNA Amplification kit (Ambion). The microarray hybridisation was performed using the Illumina Gene Expression BeadChip (Illumina) and data analysis was performed using GeneSpring software from Agilent Technologies. Gene expression of normal and primary breast tumor samples was performed using Affymetrix U133A GeneChips (Affymetrix, Santa Clara, Calif.) following the manufacturer's instructions. Gene expression data from individual arrays were normalized by median centering and average linkage hierarchical clustering was done using Cluster and Treeview softwares (http://rana.lbl.gov/EisenSoftware.htm). Quantitative real-time PCR was performed on a PRISM 7900 sequenced detector (Applied Biosystems) using TaqMan probes (Applied Biosystems). Samples were normalized to the levels of 18S ribosomal RNA.
To extend the observation seen in MCF-7 cells, additional breast cancer cell lines were screened, including MB-468, SK-BR-3, MB-231, T47D and BT549. […] To identify the PRC2 target genes associated with the cellular sensitivity to 3-deazaneplanocin, the array analysis was performed in these breast cancer cell lines before and after 3-deazaneplanocin treatment and the expression of the 47 identified PRC2 targets profiled. It was reasoned that some the PRC2 target genes might be differentially expressed between the sensitive and resistant cell lines, which might confer the distinct sensitivity to 3-deazaneplanocin. […] Both the real time and conventional RT-PCR analysis of the 4 gene set confirmed the array data (FIGS. 6D & 6E). […]

For the molecule `Nc1nccc2c1ncn2C1C=C(CO)C(O)C1O` (stereo not drawn) [3-deazaneplanocin, 5-(4-amino-1H-imidazo[4,5-c]pyridin-1-yl)-3-(hydroxymethyl)-3-cyclopentene-1,2-diol], the “protein levels of PRC2 components SUZ12, EZH2 and EED” value in experiment [1] is recorded as “dramatic decrease”. The “sensitivity to 3-deazaneplanocin-induced cell death” value with MB-468 cells (MB-468, 5 μM, time course to 120 hours) is “highly susceptible”. Besides, the cell death result in the experiment with MB-468 cells (breast cancer MB-468 cells, 5 μM) is listed as “obvious cell death”. The “induction of FBXO32, LAMB3, PLAU, and PPP1R15A” value in experiment [2] (four sensitive cell lines (MCF-7, MB-468, SK-BR-3, T47D)) was “commonly induced”. In addition, the “induction of the same PRC2 target genes in resistant cell lines” value in experiment [2] (resistant cell lines (MCF10A, MB-231, BT549)) was “did not undergo marked further induction”. In addition, the “induction of TGFBI, IGFBP3, TNS3 and KRT17” value in experiment [2] (sensitive cell lines (MCF-7, MB-468, SK-BR-3, T47D)) was “induced in 3 out 4 sensitive cell lines”.

Values taken from patent US8058258B2, “Methods for cancer therapy and stem cell modulation” (Agency for Science, Technology and Research, priority 2006, dated 2011).
